# Laboratory results taken from ChEMBL document CHEMBL1149658, “Pyridinylimidazole inhibitors of Tie2 kinase” (Bioorg Med Chem Lett, 2007).
# What was measured:
# Angiopoietin-1 receptor = Angiopoietin-1 receptor (Homo sapiens, UniProt Q02763); assay: Inhibition of Tie2 kinase by autophosphorylation assay; type: functional
# [1] = Inhibition of P38 kinase; parameters: species or system Homo sapiens
# Mus musculus [2] = assay: Reduction in bFGF-induced angiogenesis in Matrigel mouse model at 25 mg/kg, ip bid; type: functional; parameters: scale not given: the % may be the effect or the level left; settings: route intraperitoneal
# Mus musculus [3] = assay: Reduction in bFGF-induced angiogenesis in Matrigel mouse model at 50 mg/kg, ip bid; type: functional; parameters: scale not given: the % may be the effect or the level left; settings: route intraperitoneal
# MOPC 315 = assay: Efficacy in mouse MOPC315 cells xenografted mouse assessed as delay in tumor growth; type: functional, cell-based
# Sequence of Angiopoietin-1 receptor (Q02763 whole entry): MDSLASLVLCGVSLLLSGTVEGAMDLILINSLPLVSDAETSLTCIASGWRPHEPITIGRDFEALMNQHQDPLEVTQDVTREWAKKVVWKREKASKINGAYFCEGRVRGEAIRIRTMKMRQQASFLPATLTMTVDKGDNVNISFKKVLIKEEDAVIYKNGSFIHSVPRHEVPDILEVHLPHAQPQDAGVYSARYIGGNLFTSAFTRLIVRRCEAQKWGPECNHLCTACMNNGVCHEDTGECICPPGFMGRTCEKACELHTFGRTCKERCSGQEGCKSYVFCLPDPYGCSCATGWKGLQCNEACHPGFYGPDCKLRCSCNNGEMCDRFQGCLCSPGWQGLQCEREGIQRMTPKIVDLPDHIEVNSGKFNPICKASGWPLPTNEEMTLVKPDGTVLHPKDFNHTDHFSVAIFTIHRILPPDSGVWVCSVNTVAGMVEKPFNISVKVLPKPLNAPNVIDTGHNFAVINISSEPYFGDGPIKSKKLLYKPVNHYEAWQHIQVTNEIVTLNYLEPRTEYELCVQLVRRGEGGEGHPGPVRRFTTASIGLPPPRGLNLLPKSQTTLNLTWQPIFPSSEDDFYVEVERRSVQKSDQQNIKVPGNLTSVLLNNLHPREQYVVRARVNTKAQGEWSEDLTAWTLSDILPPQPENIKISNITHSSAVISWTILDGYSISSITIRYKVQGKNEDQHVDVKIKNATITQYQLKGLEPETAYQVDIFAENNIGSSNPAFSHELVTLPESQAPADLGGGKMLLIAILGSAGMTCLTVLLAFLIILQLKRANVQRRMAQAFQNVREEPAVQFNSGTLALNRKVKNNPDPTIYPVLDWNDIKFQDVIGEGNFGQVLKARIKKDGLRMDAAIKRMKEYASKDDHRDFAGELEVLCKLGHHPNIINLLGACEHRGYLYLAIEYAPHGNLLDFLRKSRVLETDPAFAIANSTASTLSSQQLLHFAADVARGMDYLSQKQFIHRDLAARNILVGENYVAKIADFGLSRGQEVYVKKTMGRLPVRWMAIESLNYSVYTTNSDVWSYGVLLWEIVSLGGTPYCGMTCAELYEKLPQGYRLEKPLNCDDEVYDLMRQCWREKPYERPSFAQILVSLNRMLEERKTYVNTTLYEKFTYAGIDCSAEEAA
Structure (SMILES),IC50 (Angiopoietin-1 receptor) [µM],IC50 [1] [µM],Activity (Mus musculus [2]) [%],Activity (Mus musculus [3]) [%],Activity (MOPC 315)
COc1ccc2cc(-c3nc(-c4ccc([S+](C)[O-])cc4)n(C)c3-c3ccncc3)ccc2c1 (stereo not given),20,16,–,–,–
C[S+]([O-])c1ccc(-c2nc(-c3ccc4ccccc4c3)c(-c3ccncc3)[nH]2)cc1 (stereo not given),0.3,0.3,–,–,–
CCCn1c(-c2ccc([S+](C)[O-])cc2)nc(-c2ccncc2)c1-c1ccc2cc(OC)ccc2c1 (stereo not given),0.437,> 16,–,–,–
COc1ccc2cc(-c3c(-c4ccncc4)nc(-c4ccc([S+](C)[O-])cc4)n3CC(C)C)ccc2c1 (stereo not given),3.89,> 16,–,–,–
C[S+]([O-])c1ccc(-c2nc(-c3ccc4cc(Br)ccc4c3)c(-c3ccncc3)[nH]2)cc1 (stereo not given),0.339,4.57,–,–,–
C[S+]([O-])c1ccc(-c2nc(-c3ccc4cc(-c5ccccc5)ccc4c3)c(-c3ccncc3)[nH]2)cc1 (stereo not given),5.5,16.5,–,–,–
COc1ccc2cc(-c3c(-c4ccncc4)nc(-c4ccc([S+](C)[O-])cc4)n3C)ccc2c1 (stereo not given),0.06,16,5,30,–
CCn1c(-c2ccc([S+](C)[O-])cc2)nc(-c2ccncc2)c1-c1ccc2cc(OC)ccc2c1 (stereo not given),5.37,> 16,–,–,–
Cc1ccc2cc(-c3nc(-c4ccc([S+](C)[O-])cc4)[nH]c3-c3ccncc3)ccc2c1 (stereo not given),0.219,0.741,–,–,–
COc1ccc2cc(-c3nc(-c4ccc([S+](C)[O-])cc4)[nH]c3-c3ccncc3)ccc2c1 (stereo not given),0.25,50,41,70,Dose-dependent effect
